# In patent US8901171B2, “Compounds for suppressing a peripheral nerve disorder induced by an anti-cancer agent” (Takeda Pharmaceutical Company Limited, priority 2010, dated 2014):
# What was measured:
# Assay type in all cases: in vivo
# [1] = test system: Mice (C57BL/6N, male, 8-week-old), peripheral nerve disorders induced by various anti-cancer agents; test: Experimental Example 4: pain threshold of mice given various anti-cancer agents, compound 9′, balance type pressing device (Ugo Basile)
# Method: Group D was intravenously administered with compound 9′ (1 mg/kg body weight) of Reference Example B dissolved in solution of N methyl-D(−)-glucamine (0.01 mol/L) immediately before intraperitoneal administration of various anti-cancer agents. Pain threshold of each group was measured 3 week after the administration for paclitaxel and 1 week after the administration for the anti-cancer agents other than paclitaxel. Pain threshold is a weighed value (gram) at the time when a false escape response is observed by pressurizing the plantar part of the right hindlimb using a balance type pressing device (Ugo Basile). The values in the Table show mean±standard error of the weighed values, and n is the number of the mice in each group.
# [2] = test system: Mice (C57BL/6N, male, 8-week-old), peripheral nerve disorders induced by various anti-cancer agents; test: Experimental Example 2: pain threshold of mice given various anti-cancer agents, balance type pressing device (Ugo Basile); details: 1 week after
# Method: Mice (C57BL/6N, male, 8-week-old) were divided into Group A, Group B, and Group C. As Group A, non-treated animals were used. […] Group C was intravenously administered with compound 72 (3 mg/kg body weight) of Reference Example A dissolved in an emulsion containing soybean oil, egg-yolk lecithin, glycerol and the like immediately before intraperitoneal administration of various anti-cancer agents. Thus, neither an enumerated anti- cancer agent nor Compound 72 was administered to Group A; an anti-cancer agent but not Compound 72 was administered to Groups B; and both an anti-cancer agent and Compound 72 were administered to Groups C. Pain threshold of each group was measured 1 week after the administration of the anti-cancer agent. Pain threshold is a weighed value (gram) at the time when a false escape response is observed by pressurizing the plantar part of the right hindlimb using a balance type pressing device (Ugo Basile). The values in the Table show mean ±standard error of the weighed values, and n is the number of the mice in each group.
# [3] = test system: Mice (C57BL/6N, male, 7-week-old), peripheral nerve disorders induced by paclitaxel; test: Experimental Example 1: pain threshold of paclitaxel-treated mice, balance type pressing device (Ugo Basile); details: mean ± standard error
# Method: Mice (C57BL/6N, male, 7-week-old) were divided into Group A (6 mice), Group B (6 mice), and Group C (6 mice). Group B and Group C were intraperitoneally administered with paclitaxel (dissolved in ethanol:Cremophor EL:saline=0.5:0.5:9; 4 mg/kg body weight). As Group A, non-treated animals were used. Group C was intravenously administered with compound 72 (10 mg/kg body weight) of Reference Example A dissolved in an emulsion containing soybean oil, egg-yolk lecithin, glycerol and the like immediately before and 1 and 2 weeks after intraperitoneal administration of paclitaxel (total 3 times). Thus, neither paclitaxel nor Compound 72 was administered to Group A; paclitaxel but not Compound 72 was administered to Group B; and both paclitaxel and Compound 72 were administered to Group C. Pain threshold of each group was measured 3 weeks after paclitaxel administration to Group B and Group C. Pain threshold is a weighed value (gram) at the time when a false escape response is observed by pressurizing the plantar part of the right hindlimb using a balance type pressing device (Ugo Basile). The values in the Table show mean ±standard error of the weighed values.
# [4] = test system: Rat (Wistar, male, 5-week-old), peripheral nerve disorders induced by paclitaxel; test: Experimental Example 3: pain threshold of paclitaxel-treated rats, Electronic von Frey
# Method: Rat (Wistar, male, 5-week-old) were divided into Group A, Group B, and Group C. As Group A, non-treated animals were used. To Group B and Group C, paclitaxel is diluted with saline to a given concentration, and intraperitoneally administered at 6 mg/kg body weight for a total of 3 times at intervals of 1 to 2 days. Group C was intravenously administered with compound 72 (10 mg/kg body weight) of Reference Example A dissolved in an emulsion containing soybean oil, egg-yolk lecithin, glycerol and the like immediately before intraperitoneal administration of paclitaxel (total 3 times). Thus, neither paclitaxel nor Compound 72 was administered to Group A; paclitaxel but not Compound 72 was administered to Group B; and both paclitaxel and Compound 72 were administered to Group C. Pain threshold of each group was measured 2 weeks after first paclitaxel administration. Pain threshold is a weighed value (gram) at the time when an avoidance response is observed by pressurizing the plantar part of the right hindlimb using an Electronic von Frey (IITC Life Science). The values in the Table show mean ±standard error of the weighed values, and n is the number of the rats in each group.
smiles,measurement,setting,value
"N.N.O=C([O-])C1(C(=O)[O-])CCC1.[Pt+2] [Carboplatin, carboplatin, reference compound]",Pain threshold,"[1]; Group B: anti-cancer agent alone i.p. (docetaxel 3, vincristine 0.1, cisplatin 3, carboplatin 40, bortezomib 0.4 mg/kg), 1 week after",110.0 ± 6.8 g
same,Pain threshold,"[2]; Group B: anti-cancer agent alone i.p. (docetaxel 3, vincristine 0.1, cisplatin 3, carboplatin 40, bortezomib 0.4 mg/kg), non-treated Group A 365.0 ± 17.8",110.0 ± 6.8 g
"CCOC(=O)C1=CCOC[C@H]1S(=O)(=O)Nc1ccc(F)cc1Cl [compound 9′, ethyl (3S)-3-[N-(2-chloro-4-fluorophenyl)sulfamoyl]-3,6-dihydro-2H-pyran-4-carboxylate]",Pain threshold,"[1]; Group D: bortezomib 0.4 mg/kg i.p. + compound 9′ 1 mg/kg i.v. immediately before, 1 week after",256.7 ± 26.5 g
same,Pain threshold,"[1]; Group D: carboplatin 40 mg/kg i.p. + compound 9′ 1 mg/kg i.v. immediately before, 1 week after",176.7 ± 16.7 g
same,Pain threshold,"[1]; Group D: cisplatin 3 mg/kg i.p. + compound 9′ 1 mg/kg i.v. immediately before, 1 week after",193.3 ± 26.2 g
same,Pain threshold,"[1]; Group D: docetaxel 3 mg/kg i.p. + compound 9′ 1 mg/kg i.v. immediately before, 1 week after",276.7 ± 38.1 g
same,Pain threshold,"[1]; Group D: paclitaxel 10 mg/kg i.p. + compound 9′ 1 mg/kg i.v. immediately before, 3 week after, mean ± standard error",406.7 ± 61.2 g
same,Pain threshold,"[1]; Group D: vincristine 0.1 mg/kg i.p. + compound 9′ 1 mg/kg i.v. immediately before, 1 week after",306.7 ± 73.5 g
"CCOC(=O)C1=CCCC[C@H]1S(=O)(=O)Nc1ccc(F)cc1Cl [compound 72, ethyl (6R)-6-[N-(2-chloro-4-fluorophenyl)sulfamoyl]-1-cyclohexene-1-carboxylate]",Pain threshold,"[3]; Group C: paclitaxel 4 mg/kg i.p. + compound 72 10 mg/kg i.v. immediately before and 1 and 2 weeks after (3 times), measured 3 weeks after paclitaxel",441.7 ± 28.6 g
same,Pain threshold,"[2]; Group C: bortezomib 0.4 mg/kg i.p. + compound 72 3 mg/kg i.v. immediately before, mean ± standard error",306.7 ± 24.0 g
same,Pain threshold,"[2]; Group C: carboplatin 40 mg/kg i.p. + compound 72 3 mg/kg i.v. immediately before, mean ± standard error",213.3 ± 13.3 g
same,Pain threshold,"[2]; Group C: cisplatin 3 mg/kg i.p. + compound 72 3 mg/kg i.v. immediately before, mean ± standard error",166.7 ± 18.5 g
same,Pain threshold,"[2]; Group C: docetaxel 3 mg/kg i.p. + compound 72 3 mg/kg i.v. immediately before, mean ± standard error",276.7 ± 17.4 g
same,Pain threshold,"[2]; Group C: vincristine 0.1 mg/kg i.p. + compound 72 3 mg/kg i.v. immediately before, mean ± standard error",289.2 ± 44.6 g
same,Pain threshold,"[4]; Group C: paclitaxel 6 mg/kg i.p. 3 times + compound 72 10 mg/kg i.v. immediately before each, 2 weeks after first paclitaxel, mean ± standard error",24.9 ± 0.9 g
"CC(=O)O[C@H]1C(=O)[C@@]2(C)[C@H]([C@H](OC(=O)c3ccccc3)[C@]3(O)C[C@H](OC(=O)[C@H](O)[C@@H](NC(=O)c4ccccc4)c4ccccc4)C(C)=C1C3(C)C)[C@]1(OC(C)=O)CO[C@@H]1C[C@@H]2O [paclitaxel, reference compound]",Pain threshold,"[3]; Group B: paclitaxel 4 mg/kg i.p. alone, measured 3 weeks after, non-treated Group A 443.3 ± 32.8",185.0 ± 19.3 g
same,Pain threshold,"[4]; Group B: paclitaxel 6 mg/kg i.p. 3 times alone, 2 weeks after first administration, non-treated Group A 25.8 ± 0.7",15.4 ± 2.6 g
